Active and inactive are the calls of the source. The calls are words filed in the database; no cut-off is given here.
Tests used:
[1] = target: T1, Muscarinic acetylcholine receptor M1 (Homo sapiens, UniProt P11229); test: Displacement of [3H]N-methylscopolamine from human muscarinic M1 receptor expressed in human HEK293T cell membranes by radioligand competition binding based analysis; parameters: species or system Cell membrane
T1 sequence (P11229 whole entry): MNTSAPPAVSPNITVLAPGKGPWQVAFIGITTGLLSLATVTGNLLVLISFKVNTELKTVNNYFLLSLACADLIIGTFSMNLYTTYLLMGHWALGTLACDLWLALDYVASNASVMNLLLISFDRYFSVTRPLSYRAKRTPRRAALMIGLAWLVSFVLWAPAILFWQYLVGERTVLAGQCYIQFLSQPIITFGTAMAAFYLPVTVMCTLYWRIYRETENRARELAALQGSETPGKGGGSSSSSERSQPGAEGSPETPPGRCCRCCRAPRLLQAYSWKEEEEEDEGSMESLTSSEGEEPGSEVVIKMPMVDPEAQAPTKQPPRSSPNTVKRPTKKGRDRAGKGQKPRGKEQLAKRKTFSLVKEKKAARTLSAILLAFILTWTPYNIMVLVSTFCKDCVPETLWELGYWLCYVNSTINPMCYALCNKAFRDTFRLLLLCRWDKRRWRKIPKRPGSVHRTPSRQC

[2] = target: T2, Muscarinic acetylcholine receptor M3 (Homo sapiens, UniProt P20309); test: Binding affinity to saturated human muscarinic M3 expressed in CHO cells assessed as dissociation constant incubated for 2 hrs in presence of atropine by flow cytometry; assay type: cell-based
Target sequence in this assay (P20309 whole entry): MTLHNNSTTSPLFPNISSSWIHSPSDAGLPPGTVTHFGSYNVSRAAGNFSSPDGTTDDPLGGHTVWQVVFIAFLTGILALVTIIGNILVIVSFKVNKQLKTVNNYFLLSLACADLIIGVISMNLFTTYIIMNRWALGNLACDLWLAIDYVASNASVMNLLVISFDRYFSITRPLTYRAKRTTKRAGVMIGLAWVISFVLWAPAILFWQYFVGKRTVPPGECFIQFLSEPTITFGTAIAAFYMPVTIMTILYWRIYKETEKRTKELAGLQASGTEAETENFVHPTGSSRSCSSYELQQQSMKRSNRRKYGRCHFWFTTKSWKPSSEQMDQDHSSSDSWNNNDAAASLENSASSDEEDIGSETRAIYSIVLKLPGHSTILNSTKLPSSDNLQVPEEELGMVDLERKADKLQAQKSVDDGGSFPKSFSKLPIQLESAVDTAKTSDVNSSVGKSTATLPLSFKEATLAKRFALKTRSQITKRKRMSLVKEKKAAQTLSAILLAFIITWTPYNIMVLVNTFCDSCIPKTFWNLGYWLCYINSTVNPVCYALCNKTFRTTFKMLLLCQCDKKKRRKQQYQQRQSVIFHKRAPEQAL

[3] = target: T2, Muscarinic acetylcholine receptor M3; test: Binding affinity to human muscarinic M3 expressed in CHO cells assessed as association rate constant incubated for 1 to 75 mins in presence of atropine by flow cytometry; assay type: cell-based; settings: time 1-75 min
Target sequence in this assay (P20309 whole entry, looked up): as the sequence (P20309 whole entry) above

[4] = target: T2, Muscarinic acetylcholine receptor M3; test: Binding affinity to human muscarinic M3 receptor expressed in CHO cells assessed as binding to cell membrane at 60 nM measured for 60 mins by Hoechst H33342 staining based confocal microscopy; assay type: cell membranes
Target sequence in this assay (P20309 whole entry, looked up): as the sequence (P20309 whole entry) above

[5] = target: T1, Muscarinic acetylcholine receptor M1; test: Binding affinity to saturated human muscarinic M1 expressed in CHO cells assessed as dissociation constant incubated for 2 hrs by flow cytometry; assay type: cell-based
[6] = target: T3, Muscarinic acetylcholine receptor M4 (Homo sapiens, UniProt P08173); test: Displacement of [3H]N-methylscopolamine from human muscarinic M4 receptor expressed in human HEK293T cell membranes by radioligand competition binding based analysis; parameters: species or system Cell membrane
T3 sequence (P08173 whole entry): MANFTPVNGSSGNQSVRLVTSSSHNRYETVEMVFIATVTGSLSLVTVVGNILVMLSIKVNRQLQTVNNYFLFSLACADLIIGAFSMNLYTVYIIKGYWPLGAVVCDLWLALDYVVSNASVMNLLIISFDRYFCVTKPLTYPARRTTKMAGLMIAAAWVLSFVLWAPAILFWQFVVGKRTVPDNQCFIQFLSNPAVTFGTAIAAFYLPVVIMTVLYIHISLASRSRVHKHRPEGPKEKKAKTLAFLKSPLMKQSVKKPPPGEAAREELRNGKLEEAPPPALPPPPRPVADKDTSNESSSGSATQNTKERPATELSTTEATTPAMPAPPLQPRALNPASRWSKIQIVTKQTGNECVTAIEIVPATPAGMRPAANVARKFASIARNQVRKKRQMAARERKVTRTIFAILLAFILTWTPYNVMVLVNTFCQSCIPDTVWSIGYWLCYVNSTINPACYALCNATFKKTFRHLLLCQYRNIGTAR

[7] = target: T2, Muscarinic acetylcholine receptor M3; test: Binding affinity to human muscarinic M3 expressed in CHO cells assessed as dissociation rate constant preincubated for 55 mins in dark followed by atropine addition and measured after 1 to 152 mins by flow cytometry; assay type: cell-based; settings: time 56-207 min
Target sequence in this assay (P20309 whole entry, looked up): as the sequence (P20309 whole entry) above

[8] = organism: Homo sapiens; test: Selectivity ratio, Ki for displacement of [3H]N-methylscopolamine from human muscarinic M5 receptor expressed in human HEK293T cell membranes to Ki for displacement of [3H]N-methylscopolamine from human muscarinic M3 receptor expressed in human HEK293T cell membranes
[9] = organism: Homo sapiens; test: Selectivity ratio, Ki for displacement of [3H]N-methylscopolamine from human muscarinic M4 receptor expressed in human HEK293T cell membranes to Ki for displacement of [3H]N-methylscopolamine from human muscarinic M3 receptor expressed in human HEK293T cell membranes
[10] = target: T2, Muscarinic acetylcholine receptor M3; test: Binding affinity to saturated human muscarinic M3 expressed in CHO cells assessed as dissociation constant incubated for 2 hrs by flow cytometry; assay type: cell-based
Target sequence in this assay (P20309 whole entry): as the sequence (P20309 whole entry) above

[11] = target: T1, Muscarinic acetylcholine receptor M1; test: Binding affinity to saturated human muscarinic M1 expressed in CHO cells assessed as dissociation constant incubated for 2 hrs in presence of atropine by flow cytometry; assay type: cell-based
[12] = target: T2, Muscarinic acetylcholine receptor M3; test: Binding affinity to human muscarinic M3 receptor expressed in CHO cells assessed as binding to cell membrane at 100 nM measured for 60 mins in presence of atropine by Hoechst H33342 staining based confocal microscopy; assay type: cell membranes
Target sequence in this assay (P20309 whole entry, looked up): as the sequence (P20309 whole entry) above

[13] = target: T2, Muscarinic acetylcholine receptor M3; test: Binding affinity to human muscarinic M3 receptor expressed in human HEK293T cells co-expressing beta-arrestin2 assessed as inhibition of carbachol-induced beta-arrestin recruitment preincubated for 30 mins followed by carbachol stimulation and measured after 90 mins by PathHunter assay; assay type: cell-based
Target sequence in this assay (P20309 whole entry): as the sequence (P20309 whole entry) above

[14] = target: T2, Muscarinic acetylcholine receptor M3; test: Binding affinity to human muscarinic M3 receptor expressed in CHO cells assessed as binding to cell membrane at 60 nM measured for 60 mins in presence of atropine by Hoechst H33342 staining based confocal microscopy; assay type: cell membranes
Target sequence in this assay (P20309 whole entry, looked up): as the sequence (P20309 whole entry) above

[15] = target: T2, Muscarinic acetylcholine receptor M3; test: Binding affinity to human muscarinic M3 receptor expressed in CHO cells assessed as binding to cell membrane at 100 nM measured for 60 mins by Hoechst H33342 staining based confocal microscopy; assay type: cell membranes
Target sequence in this assay (P20309 whole entry, looked up): as the sequence (P20309 whole entry) above

[16] = target: T2, Muscarinic acetylcholine receptor M3; test: Displacement of [3H]N-methylscopolamine from human muscarinic M3 receptor expressed in human HEK293T cell membranes by radioligand competition binding based analysis; parameters: species or system Cell membrane
Target sequence in this assay (P20309 whole entry): as the sequence (P20309 whole entry) above

[17] = target: T2, Muscarinic acetylcholine receptor M3; test: Displacement of atropine from human muscarinic M3 receptor expressed in CHO cells incubated for 2 hrs by flow cytometric competition binding assay; assay type: cell-based
Target sequence in this assay (P20309 whole entry): as the sequence (P20309 whole entry) above

[18] = target: T4, Muscarinic acetylcholine receptor M2 (Homo sapiens, UniProt P08172); test: Displacement of [3H]N-methylscopolamine from human muscarinic M2 receptor expressed in human HEK293T cell membranes by radioligand competition binding based analysis; parameters: species or system Cell membrane
T4 sequence (P08172 whole entry): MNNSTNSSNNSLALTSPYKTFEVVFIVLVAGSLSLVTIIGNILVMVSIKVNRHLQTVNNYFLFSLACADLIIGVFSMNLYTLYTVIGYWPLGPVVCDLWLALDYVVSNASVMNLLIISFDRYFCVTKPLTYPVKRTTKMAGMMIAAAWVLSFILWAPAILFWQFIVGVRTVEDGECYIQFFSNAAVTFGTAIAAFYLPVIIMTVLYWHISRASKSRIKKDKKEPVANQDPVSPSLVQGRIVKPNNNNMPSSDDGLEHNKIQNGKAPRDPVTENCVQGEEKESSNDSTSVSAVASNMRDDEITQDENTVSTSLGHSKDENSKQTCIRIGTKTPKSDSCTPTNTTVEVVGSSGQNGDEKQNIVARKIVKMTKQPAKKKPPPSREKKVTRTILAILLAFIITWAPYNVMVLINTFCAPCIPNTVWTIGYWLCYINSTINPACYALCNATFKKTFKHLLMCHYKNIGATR

[19] = target: T2, Muscarinic acetylcholine receptor M3; test: Binding affinity to human muscarinic M3 receptor expressed in human HEK293T cells assessed as inhibition of carbachol-induced G-protein signaling by measuring inositol accumulation preincubated for 30 mins followed by carbachol stimulation and measured after 90 mins by HTRF assay; assay type: cell-based
Target sequence in this assay (P20309 whole entry): as the sequence (P20309 whole entry) above

[20] = target: T5, Muscarinic acetylcholine receptor M5 (Homo sapiens, UniProt P08912); test: Displacement of [3H]N-methylscopolamine from human muscarinic M5 receptor expressed in human HEK293T cell membranes by radioligand competition binding based analysis; parameters: species or system Cell membrane
T5 sequence (P08912 whole entry): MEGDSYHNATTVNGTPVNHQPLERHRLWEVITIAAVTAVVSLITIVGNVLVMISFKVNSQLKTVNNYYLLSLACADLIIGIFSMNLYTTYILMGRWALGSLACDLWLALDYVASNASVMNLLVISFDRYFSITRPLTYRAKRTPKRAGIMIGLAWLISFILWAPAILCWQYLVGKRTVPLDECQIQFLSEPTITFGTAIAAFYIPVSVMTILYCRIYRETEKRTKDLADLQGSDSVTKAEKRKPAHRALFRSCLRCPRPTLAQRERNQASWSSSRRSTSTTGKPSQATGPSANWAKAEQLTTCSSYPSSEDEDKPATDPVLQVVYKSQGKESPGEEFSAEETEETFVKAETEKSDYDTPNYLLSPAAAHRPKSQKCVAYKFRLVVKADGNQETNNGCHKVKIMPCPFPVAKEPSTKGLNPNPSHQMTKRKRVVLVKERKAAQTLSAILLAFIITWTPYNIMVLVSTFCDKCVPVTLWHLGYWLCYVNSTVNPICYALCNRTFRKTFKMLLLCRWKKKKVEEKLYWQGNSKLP

[21] = target: T2, Muscarinic acetylcholine receptor M3; test: Displacement of tiotropium bromide from human muscarinic M3 receptor expressed in CHO cells incubated for 4 hrs by flow cytometric competition binding assay; assay type: cell-based
[22] = tested on: CHO-K1; test: Cytotoxicity against Chinese hamster CHO-K1 cells assessed as reduction in cell viability upto 1 uM by crystal violet staining based multiplate reader analysis; assay type: toxicity, Cricetulus griseus; settings: cho-k1, 1 µM
[23] = target: T2, Muscarinic acetylcholine receptor M3; test: Binding affinity to human muscarinic M3 expressed in CHO cells assessed as dissociation rate constant preincubated for 20 mins in dark followed by atropine addition and measured after 1 to 130 mins by flow cytometry; assay type: cell-based; settings: time lower […], time upper 150.0 min
[24] = target: T2, Muscarinic acetylcholine receptor M3; test: Binding affinity to human muscarinic M3 expressed in CHO cells assessed as association rate constant incubated for 0.5 to 36 mins in presence of atropine by flow cytometry; assay type: cell-based; settings: time lower 0.5 min, time upper […]

Compound | Ki [1] | Kd [2] | Activity [4] | Kd [5] | Ki [6] | Selectivity ratio [8] | Selectivity ratio [9] | Kd [10] | Kd [11] | Activity [12] | IC50 [13] | Activity [14] | Activity [15] | Ki [16] | Ki ([17]; read-out: Ki) | Ki ([17]; read-out: pKi (converted)) | Ki [18] | IC50 [19] | Ki [20] | Ki ([21]; read-out: Ki) | further results
CC1(C)C(/C=C/C=C/C=C2/N(CCCCS(=O)(=O)O)c3ccccc3C2(C)C)=[N+](CCCCCC(=O)NCCCCCCCCN2CCC(OC(=O)Nc3ccc(F)cc3-c3ccc(F)c(Cl)c3)CC2)c2ccc(S(=O)(=O)[O-])cc21 | 0.73 nM | 49.7 nM | Active | 6 nM | 0.87 nM | 0.39 | 0.06 | 54 nM | 6.5 nM | inactive | 450 nM | inactive | Active | 14 nM | 2.4 nM | 2.14 nM | 9.6 nM | 300 nM | 5.5 nM | 0.14 nM | ka [3]: 0.09 min⁻¹; Kdiss [7]: 0.000433 s⁻¹; Activity [22]: Non-Toxic
CN(C)c1ccc2c(-c3ccc(-c4cn(CCCCCn5cc(CCCCCCN6CCC(COC(=O)Nc7ccc(F)cc7-c7ccc(F)c(Cl)c7)CC6)nn5)nn4)cc3C(=O)[O-])c3ccc(=[N+](C)C)cc-3oc2c1 | 1.5 nM | 24 nM | Active | 7.3 nM | 1.4 nM | 6.2 | 1.2 | 23 nM | 8.3 nM | inactive | 430 nM | inactive | Active | 1.2 nM | 2.3 nM | 2.19 nM | 11 nM | 130 nM | 7.4 nM | 0.15 nM | Kdiss [23]: 0.0004 s⁻¹; Ki ([21]; read-out: pKi (converted)): 0.132 nM; Activity [22]: Non-Toxic; ka [24]: 0.37 min⁻¹
CN1/C(=C/C=C/C=C/C2=[N+](CCCCCC(=O)NCCCCCCN3CCC(OC(=O)Nc4ccc(F)cc4-c4ccc(F)c(Cl)c4)CC3)c3ccccc3C2(C)C)C(C)(C)c2ccccc21 | 2.7 nM | – | – | – | 5.4 nM | 15 | 2 | – | – | – | – | – | – | 2.7 nM | – | – | 5.9 nM | – | 40 nM | – | –
